What was measured:
Assay type in all cases: functional
NCI-H460 [1] = assay: Chemo-sensitizing activity against human NCI-H460 cells assessed as reversal fold at 1 uM measured after 72 hrs in presence of mitoxantrone by CCK8 assay relative to control
NCI-H460 [2] = assay: Chemo-sensitizing activity against mitoxantrone-selected ABCG2-overexpressing human NCI-H460/MX20 cells assessed as reversal fold at 1 uM measured after 72 hrs in presence of mitoxantrone by CCK8 assay relative to control
NCI-H460 [3] = assay: Chemo-sensitizing activity against human NCI-H460 cells assessed as reversal fold at 1 uM measured after 72 hrs in presence of topotecan by CCK8 assay relative to control
NCI-H460 [4] = assay: Chemo-sensitizing activity against mitoxantrone-selected ABCG2-overexpressing human NCI-H460/MX20 cells assessed as reversal fold at 1 uM measured after 72 hrs in presence of topotecan by CCK8 assay relative to control
NCI-H460 [5] = assay: Chemo-sensitizing activity against human NCI-H460 cells assessed as reversal fold at 1 uM measured after 72 hrs in presence of SN-38 by CCK8 assay relative to control
NCI-H460 [6] = assay: Chemo-sensitizing activity against mitoxantrone-selected ABCG2-overexpressing human NCI-H460/MX20 cells assessed as reversal fold at 1 uM measured after 72 hrs in presence of SN-38 by CCK8 assay relative to control
A549 [7] = assay: Chemo-sensitizing activity against human A549 cells assessed as reversal fold at 1 uM measured after 72 hrs in presence of mitoxantrone by CCK8 assay relative to control
A549 [8] = assay: Chemo-sensitizing activity against becatecarin-selected ABCG2-overexpressing human A549/Bec150 cells assessed as reversal fold at 1 uM measured after 72 hrs in presence of mitoxantrone by CCK8 assay relative to control
A549 [9] = assay: Chemo-sensitizing activity against human A549 cells assessed as reversal fold at 1 uM measured after 72 hrs in presence of topotecan by CCK8 assay relative to control
A549 [10] = assay: Chemo-sensitizing activity against becatecarin-selected ABCG2-overexpressing human A549/Bec150 cells assessed as reversal fold at 1 uM measured after 72 hrs in presence of topotecan by CCK8 assay relative to control
A549 [11] = assay: Chemo-sensitizing activity against human A549 cells assessed as reversal fold at 1 uM measured after 72 hrs in presence of SN-38 by CCK8 assay relative to control
A549 [12] = assay: Chemo-sensitizing activity against becatecarin-selected ABCG2-overexpressing human A549/Bec150 cells assessed as reversal fold at 1 uM measured after 72 hrs in presence of SN-38 by CCK8 assay relative to control
HEK293 [13] = assay: Chemo-sensitizing activity against human HEK293 cells assessed as reversal fold at 1 uM measured after 72 hrs in presence of mitoxatrone by CCK8 assay relative to control
HEK293 [14] = assay: Chemo-sensitizing activity against ABCG2-overexpressing human HEK293/482R cells assessed as reversal fold at 1 uM measured after 72 hrs in presence of mitoxatrone by CCK8 assay relative to control
HEK293 [15] = assay: Chemo-sensitizing activity against human HEK293 cells assessed as reversal fold at 1 uM measured after 72 hrs in presence of topotecan by CCK8 assay relative to control
HEK293 [16] = assay: Chemo-sensitizing activity against ABCG2-overexpressing human HEK293 cells assessed as reversal fold at 1 uM measured after 72 hrs in presence of topotecan by CCK8 assay relative to control
HEK293 [17] = assay: Chemo-sensitizing activity against human HEK293 cells assessed as reversal fold at 1 uM measured after 72 hrs in presence of SN-38 by CCK8 assay relative to control
HEK293 [18] = assay: Chemo-sensitizing activity against ABCG2-overexpressing human HEK293/482R cells assessed as reversal fold at 1 uM measured after 72 hrs in presence of SN-38 by CCK8 assay relative to control
NCI/ADR-RES [19] = assay: Chemo-sensitizing activity against ABCB1-overexpressing human NCI/ADR-RES cells assessed as reversal fold at 1 uM measured after 72 hrs in presence of paclitaxel by CCK8 assay relative to control
OVCAR-8 [20] = assay: Chemo-sensitizing activity against human OVCAR-8 cells assessed as reversal fold at 1 uM measured after 72 hrs in presence of vincristine by CCK8 assay relative to control
NCI/ADR-RES [21] = assay: Chemo-sensitizing activity against ABCB1-overexpressing human NCI/ADR-RES cells assessed as reversal fold at 1 uM measured after 72 hrs in presence of vincristine by CCK8 assay relative to control
OVCAR-8 [22] = assay: Chemo-sensitizing activity against human OVCAR-8 cells assessed as reversal fold at 1 uM measured after 72 hrs in presence of paclitaxel by CCK8 assay relative to control
OVCAR-8 [23] = assay: Chemo-sensitizing activity against human OVCAR-8 cells assessed as reversal fold at 1 uM measured after 72 hrs in presence of colchicine by CCK8 assay relative to control
NCI/ADR-RES [24] = assay: Chemo-sensitizing activity against ABCB1-overexpressing human NCI/ADR-RES cells assessed as reversal fold at 1 uM measured after 72 hrs in presence of colchicine by CCK8 assay relative to control
KB 3-1 [25] = assay: Chemo-sensitizing activity against human KB 3-1 cells assessed as reversal fold at 1 uM measured after 72 hrs in presence of vincristine by CCK8 assay relative to control
KB-V1 [26] = assay: Chemo-sensitizing activity against ABCB1-overexpressing human KB-V1 cells assessed as reversal fold at 1 uM measured after 72 hrs in presence of vincristine by CCK8 assay relative to control
KB 3-1 [27] = assay: Chemo-sensitizing activity against human KB 3-1 cells assessed as reversal fold at 1 uM measured after 72 hrs in presence of paclitaxel by CCK8 assay relative to control
KB-V1 [28] = assay: Chemo-sensitizing activity against ABCB1-overexpressing human KB-V1 cells assessed as reversal fold at 1 uM measured after 72 hrs in presence of paclitaxel by CCK8 assay relative to control
KB 3-1 [29] = assay: Chemo-sensitizing activity against human KB 3-1 cells assessed as reversal fold at 1 uM measured after 72 hrs in presence of colchicine by CCK8 assay relative to control
KB-V1 [30] = assay: Chemo-sensitizing activity against ABCB1-oveexpressing human KB-V1 cells assessed as reversal fold at 1 uM measured after 72 hrs in presence of colchicine by CCK8 assay relative to control
HEK293 [31] = assay: Chemo-sensitizing activity against human HEK293 cells assessed as reversal fold at 1 uM measured after 72 hrs in presence of vincristine by CCK8 assay relative to control
HEK293 [32] = assay: Chemo-sensitizing activity against ABCB1-overexpressing human HEK293/MDR19 cells assessed as reversal fold at 1 uM measured after 72 hrs in presence of vincristine by CCK8 assay relative to control
HEK293 [33] = assay: Chemo-sensitizing activity against human HEK293 cells assessed as reversal fold at 1 uM measured after 72 hrs in presence of paclitaxel by CCK8 assay relative to control
HEK293 [34] = assay: Chemo-sensitizing activity against ABCB1-overexpressing human HEK293/MDR19 cells assessed as reversal fold at 1 uM measured after 72 hrs in presence of paclitaxel by CCK8 assay relative to control
HEK293 [35] = assay: Chemo-sensitizing activity against human HEK293 cells assessed as reversal fold at 1 uM measured after 72 hrs in presence of colchicine by CCK8 assay relative to control
HEK293 [36] = assay: Chemo-sensitizing activity against ABCB1-overexpressing human HEK293/MDR19 cells assessed as reversal fold at 1 uM measured after 72 hrs in presence of colchicine by CCK8 assay relative to control

COc1ccc2c3c([nH]c2c1)[C@H](CC(C)C)N1C(=O)[C@H](CCC(=O)OC(C)(C)C)NC(=O)[C@@H]1C3
fold change (FC) (NCI-H460 [1]): 1.7
fold change (FC) (NCI-H460 [2]): 18
fold change (FC) (NCI-H460 [3]): 2.7
fold change (FC) (NCI-H460 [4]): 22.6
fold change (FC) (NCI-H460 [5]): 3
fold change (FC) (NCI-H460 [6]): 20.6
fold change (FC) (A549 [7]): 2
fold change (FC) (A549 [8]): 14.9
fold change (FC) (A549 [9]): 1.7
fold change (FC) (A549 [10]): 9.1
fold change (FC) (A549 [11]): 1.6
fold change (FC) (A549 [12]): 13.2
fold change (FC) (HEK293 [13]): 1.1
fold change (FC) (HEK293 [14]): 11.9
fold change (FC) (HEK293 [15]): 0.9
fold change (FC) (HEK293 [16]): 5.8
fold change (FC) (HEK293 [17]): 1
fold change (FC) (HEK293 [18]): 24.1

COc1cc2c(cc1OC)CN(CCc1ccc(NC(=O)c3cc(OC)c(OC)cc3NC(=O)c3cnc4ccccc4c3)cc1)CC2 [TARIQUIDAR]
fold change (FC) (NCI/ADR-RES [19]): 1040
fold change (FC) (OVCAR-8 [20]): 1.3
fold change (FC) (NCI/ADR-RES [21]): 174
fold change (FC) (OVCAR-8 [22]): 1
fold change (FC) (OVCAR-8 [23]): 1
fold change (FC) (NCI/ADR-RES [24]): 45
fold change (FC) (KB 3-1 [25]): 1.1
fold change (FC) (KB-V1 [26]): 786
fold change (FC) (KB 3-1 [27]): 0.9
fold change (FC) (KB-V1 [28]): 1281
fold change (FC) (KB 3-1 [29]): 1.2
fold change (FC) (KB-V1 [30]): 50.7
fold change (FC) (HEK293 [31]): 1.5
fold change (FC) (HEK293 [32]): 245.2
fold change (FC) (HEK293 [33]): 1
fold change (FC) (HEK293 [34]): 309
fold change (FC) (HEK293 [35]): 1
fold change (FC) (HEK293 [36]): 12.9
